According to patent EP3383888B9, “NEW PEPTIDES HAVING ANTIMICROBIAL ACTIVITY AND NEW ENZYME CAPABLE OF CONVERTING L-CONFIGURED RESIDUE IN D-CONFIGURED AMINO ACID IN A PEPTIDE” (Institut national de recherche pour l'agriculture, …, priority 2015, dated 2017):
Square brackets hold non-standard residues; d marks the D form. Ends that are not written are not given here. Peptide text beside a SMILES is read from it. d(aIle) = CC[C@H](C)[C@@H](N)C(=O)O

Legend:
B. subtilis [1] = assay: Inhibition assay on solid medium (plate growth inhibition); assay type: cell-based, Bacillus subtilis; settings: 200 µg of peptide spotted, 37°C, Fig. 5A
Description: An overnight culture of the bacterial strain to be assayed was freshly inoculated to sterile BHI liquid medium. After 4 hours of bacterial growth at 37°C, the medium was diluted to 1/1000 and inoculated into a soft agarose medium pre-heated at 42°C. The agarose medium containing bacteria was overlaid on a previously jellified sterile BHI agarose layer. 200 µg of peptide was spotted onto the plate and bacterial growth proceeded at 37°C.

B. subtilis [2] = assay: Inhibition assay on liquid medium (OD at 600 nm); assay type: cell-based, Bacillus subtilis; settings: for Growth of B. subtilis in liquid LB medium (bacterial growth inhibition): Fig. 5B, Fig. 8a
Description: (§1) An overnight culture of the bacterial strain to be assayed was freshly inoculated to sterile LB liquid medium. After 4 hours of bacterial growth at 37°C, the medium was diluted to 1/10,000 and inoculated into sterile liquid LB or BHI medium. Peptide solution was added (1/100) to a final concentration ranging from 0.01 to 100µM and OD at 600 nm was recorded continuously using a Tecan microplate reader (Infinite® 200 PRO series).

Streptococcus agalactiae = assay: Inhibition assay on liquid medium (OD at 600 nm); assay type: cell-based; settings: peptide at 100µM; Fig. 12
Description: as §1

Row | Molecule | Plate growth inhibition assay of B. subtilis (B. subtilis [1]) | Growth of B. subtilis in liquid LB medium (bacterial growth inhibition) (B. subtilis [2]; liquid LB medium) | Growth of B. subtilis in liquid LB medium (bacterial growth inhibition) (B. subtilis [2]; liquid LB medium, listed as epimerized peptide) | Growth of Streptococcus agalactiae in liquid BHI medium (Streptococcus agalactiae) | potency relative to the YydF18-49DD peptide (B. subtilis [2]; B. subtilis growth ratio, Fig. 8b&c) [times] | Growth of B. subtilis after addition of peptide at mid-exponential phase (cell density) (B. subtilis [2]; liquid LB medium, peptide added after 3 hours of growth, Fig. 9)
1 | CC[C@H](C)[C@@H](NC(=O)[C@H](Cc1c[nH]c2ccccc12)NC(=O)[C@H](CCCNC(=N)N)NC(=O)[C@H](CC(N)=O)NC(=O)[C@H](CCC(=O)O)NC(=O)[C@H](CCCCN)NC(=O)[C@H](CO)NC(=O)[C@H](CCCCN)NC(=O)[C@H](NC(=O)[C@H](Cc1ccccc1)NC(=O)[C@H](Cc1ccc(O)cc1)NC(=O)[C@H](Cc1c[nH]c2ccccc12)NC(=O)[C@H](CC(C)C)NC(=O)[C@H](CC(=O)O)NC(=O)[C@H](CC(N)=O)NC(=O)[C@@H](NC(=O)[C@H](CCCCN)NC(=O)[C@H](C)NC(=O)[C@H](CC(C)C)NC(=O)[C@H](CCCCN)NC(=O)[C@H](CCC(N)=O)NC(=O)[C@H](CO)NC(=O)[C@H](CCC(=O)O)NC(=O)[C@H](CC(=O)O)NC(=O)[C@H](CC(C)C)NC(=O)[C@H](CC(C)C)NC(=O)CNC(C)=O)C(C)C)C(C)C)C(=O)N[C@@H](CC(C)C)C(=O)NCC(=O)N[C@@H](CO)C(=O)NCC(=O)N[C@@H](Cc1c[nH]cn1)C(=O)O [YydF18-49DD, Ac-GLLDESQKLAKVNDLWYF{d-V}KSKENRW{d-I}LGSGH (SEQ ID No 20)] (Ac-GLLDESQKLAKVNDLWYF[dV]KSKENRW[d(aIle)]LGSGH-OH) | strong inhibition growth | bacterial growth inhibition | strong and persistent inhibition | – | – | –
2 | YydF33-49DD: peptide of SEQ ID No 61 with the two epimerized residues D-Val36 and D-Ile44 (WYF[dV]KSKENRW[dI]LGSGH) | – | inhibit bacterial growth | – | inhibited | 100 | –
3 | Ac-GLLDESQKLAKVNDLWYFVKSKENRWILGSGH (SEQ ID No 20) [YydF18-49, truncated form of YydF, residues 18 to 49, no modification (all L-amino acids)] | devoid of activity | – | – | – | – | a clear slow down followed by a decrease of the cell density
4 | WYFVKSQSNRWIVGSGH (SEQ ID No 65) (WYF[dV]KSQSNRW[dI]VGSGH) [Peptide-SP] | – | – | – | inhibitors | – | –
